According to patent US20250145665A1, “MACROCYCLIC PEPTIDES USEFUL AS MODULATORS OF TNF ALPHA” (Bristol-Myers Squibb Company, priority 2023, published 2025):
Positions of bridges follow the written chain, without caps; N, C: chain ends. Non-standard residues stand in square brackets, D forms with d. Residues, ends and D or L forms follow the SMILES beside them. Bip(4'-COOH) = N[C@@H](Cc1ccc(-c2ccc(C(=O)O)cc2)cc1)C(=O)O; Bip(4'-NHAc) = CC(=O)Nc1ccc(-c2ccc(C[C@H](N)C(=O)O)cc2)cc1; Ala(morpholin-4-yl) = N[C@@H](CN1CCOCC1)C(=O)O; Bip = N[C@@H](Cc1ccc(-c2ccccc2)cc1)C(=O)O; Phe(4-NH2) = Nc1ccc(C[C@H](N)C(=O)O)cc1; 3Pal = N[C@@H](Cc1cccnc1)C(=O)O; Sar = CNCC(=O)O

Each molecule was assayed against TNFα (Homo sapiens, UniProt P01375) (assay: TNF-Induced HEK-Blue Assay). Conditions: HEK-Blue-CD40L cells, NF-kB-driven secreted alkaline phosphatase reporter; TNFα 0.5 ng/ml; 18 h; read-out: TNF induced HEK-Blue assay IC50 value.
Format: cell-based

Chain of TNFα (P01375 77-233 limits assumed): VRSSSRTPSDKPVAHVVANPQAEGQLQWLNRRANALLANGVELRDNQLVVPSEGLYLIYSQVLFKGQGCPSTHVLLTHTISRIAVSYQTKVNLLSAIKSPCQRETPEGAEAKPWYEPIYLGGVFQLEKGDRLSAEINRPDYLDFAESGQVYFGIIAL

For `CC(C)C[C@@H]1NC(=O)[C@H](Cc2ccc(O)cc2)NC(=O)[C@H](C(C)C)NC(=O)[C@@H]2CCCN2C(=O)[C@H](Cc2ccc(N)cc2)NC(=O)[C@H](CCCNC(=N)N)NC(=O)[C@H](CC(=O)O)NC(=O)[C@@H]2CCCN2C(=O)CN(C)C(=O)[C@H](Cc2ccc(-c3ccccc3)cc2)NC(=O)[C@H](Cc2ccc(-c3ccccc3)cc2)NC(=O)[C@H](CN2CCOCC2)NC(=O)CSC[C@@H](C(=O)NCC(N)=O)NC1=O` [Example 113] ({CH2CO}-[Ala(morpholin-4-yl)][Bip][Bip][Sar]PDR[Phe(4-NH2)]PVYLCG-NH2; thioether N-13), which IC50 is on record?
Its IC50 is 200 to 2000 nM.

Which IC50 does the source give for `CC(C)C[C@@H]1NC(=O)[C@H](CCCNC(=N)N)NC(=O)[C@H](C(C)C)NC(=O)[C@@H]2CCCN2C(=O)[C@H](Cc2cccnc2)NC(=O)[C@H](CCCNC(=N)N)NC(=O)[C@H](CC(=O)O)NC(=O)[C@H](Cc2ccc(O)cc2)NC(=O)CN(C)C(=O)[C@H](Cc2ccc(-c3ccccc3)cc2)NC(=O)[C@H](Cc2ccc(-c3ccccc3)cc2)NC(=O)[C@H](CN2CCOCC2)NC(=O)CSC[C@@H](C(=O)NCC(N)=O)NC1=O` [Example 114] ({CH2CO}-[Ala(morpholin-4-yl)][Bip][Bip][Sar]YDR[3Pal]PVRLCG-NH2; thioether N-13) here?
Its IC50 is 200 to 2000 nM.

For `CC(C)C[C@@H]1NC(=O)[C@H](Cc2ccc(O)cc2)NC(=O)[C@H](C(C)C)NC(=O)[C@@H]2CCCN2C(=O)[C@H](Cc2cccnc2)NC(=O)[C@H](CCCNC(=N)N)NC(=O)[C@H](CC(=O)O)NC(=O)[C@H](Cc2ccc(O)cc2)NC(=O)CN(C)C(=O)[C@H](Cc2ccc(-c3ccccc3)cc2)NC(=O)[C@H](Cc2ccc(-c3ccccc3)cc2)NC(=O)[C@H](CN2CCOCC2)NC(=O)CSC[C@@H](C(=O)NCC(N)=O)NC1=O` [Example 115] ({CH2CO}-[Ala(morpholin-4-yl)][Bip][Bip][Sar]YDR[3Pal]PVYLCG-NH2; thioether N-13), which IC50 is on record?
Its IC50 is 200 to 2000 nM.

Which IC50 does the source give for `CC(C)C[C@@H]1NC(=O)[C@H](Cc2ccc(O)cc2)NC(=O)[C@H](C(C)C)NC(=O)[C@@H]2CCCN2C(=O)[C@H](Cc2cccnc2)NC(=O)[C@H](CCCNC(=N)N)NC(=O)[C@H](CC(=O)O)NC(=O)[C@@H]2CCCN2C(=O)CN(C)C(=O)[C@H](Cc2ccc(-c3ccccc3)cc2)NC(=O)[C@H](Cc2ccc(-c3ccccc3)cc2)NC(=O)[C@H](CN2CCOCC2)NC(=O)CSC[C@@H](C(=O)NCC(N)=O)NC1=O` [Example 116] ({CH2CO}-[Ala(morpholin-4-yl)][Bip][Bip][Sar]PDR[3Pal]PVYLCG-NH2; thioether N-13) here?
The IC50 was 50 to 200 nM.

Which IC50 does the source give for `CC(C)C[C@@H]1NC(=O)[C@H](CCCNC(=N)N)NC(=O)[C@H](C(C)C)NC(=O)[C@@H]2CCCN2C(=O)[C@H](Cc2cccnc2)NC(=O)[C@@H](CCCNC(=N)N)NC(=O)[C@H](CC(=O)O)NC(=O)[C@H](Cc2ccc(O)cc2)NC(=O)CN(C)C(=O)[C@H](Cc2ccc(-c3ccccc3)cc2)NC(=O)[C@H](Cc2ccc(-c3ccccc3)cc2)NC(=O)[C@H](CN2CCOCC2)NC(=O)CSC[C@@H](C(=O)NCC(N)=O)NC1=O` [Example 117] ({CH2CO}-[Ala(morpholin-4-yl)][Bip][Bip][Sar]YD[dR][3Pal]PVRLCG-NH2; thioether N-13) here?
Its IC50 is 200 to 2000 nM.

For `CC(C)C[C@@H]1NC(=O)[C@H](Cc2ccc(O)cc2)NC(=O)[C@H](C(C)C)NC(=O)[C@@H]2CCCN2C(=O)[C@H](Cc2cccnc2)NC(=O)[C@@H](CCCNC(=N)N)NC(=O)[C@H](CC(=O)O)NC(=O)[C@H](Cc2ccc(O)cc2)NC(=O)CN(C)C(=O)[C@H](Cc2ccc(-c3ccccc3)cc2)NC(=O)[C@H](Cc2ccc(-c3ccccc3)cc2)NC(=O)[C@H](CN2CCOCC2)NC(=O)CSC[C@@H](C(=O)NCC(N)=O)NC1=O` [Example 118] ({CH2CO}-[Ala(morpholin-4-yl)][Bip][Bip][Sar]YD[dR][3Pal]PVYLCG-NH2; thioether N-13), which IC50 is on record?
The IC50 was 200 to 2000 nM.

Which IC50 does the source give for `CC(C)C[C@@H]1NC(=O)[C@H](Cc2ccc(O)cc2)NC(=O)[C@H](C(C)C)NC(=O)[C@@H]2CCCN2C(=O)[C@H](Cc2cccnc2)NC(=O)[C@@H](CCCNC(=N)N)NC(=O)[C@H](CC(=O)O)NC(=O)[C@@H]2CCCN2C(=O)CN(C)C(=O)[C@H](Cc2ccc(-c3ccccc3)cc2)NC(=O)[C@H](Cc2ccc(-c3ccccc3)cc2)NC(=O)[C@H](CN2CCOCC2)NC(=O)CSC[C@@H](C(=O)NCC(N)=O)NC1=O` [Example 119] ({CH2CO}-[Ala(morpholin-4-yl)][Bip][Bip][Sar]PD[dR][3Pal]PVYLCG-NH2; thioether N-13) here?
The IC50 was 200 to 2000 nM.

How did the IC50 turn out when `CC(C)C[C@@H]1NC(=O)[C@H](CCCNC(=N)N)NC(=O)[C@H](C(C)C)NC(=O)[C@@H]2CCCN2C(=O)[C@H](C(C)C)NC(=O)[C@H](CCCNC(=N)N)NC(=O)[C@H](CC(=O)O)NC(=O)[C@@H]2CCCN2C(=O)CN(C)C(=O)[C@H](Cc2ccc(-c3ccccc3)cc2)NC(=O)[C@H](Cc2ccc(-c3ccc(C(=O)O)cc3)cc2)NC(=O)[C@H](CN2CCOCC2)NC(=O)CSC[C@@H](C(=O)NCC(N)=O)NC1=O` [Example 120] ({CH2CO}-[Ala(morpholin-4-yl)][Bip(4'-COOH)][Bip][Sar]PDRVPVRLCG-NH2; thioether N-13) was run?
Its IC50 is 50 to 200 nM.

How did the IC50 turn out when `CC(C)C[C@@H]1NC(=O)[C@H](Cc2ccc(O)cc2)NC(=O)[C@H](C(C)C)NC(=O)[C@@H]2CCCN2C(=O)[C@H](C(C)C)NC(=O)[C@H](CCCNC(=N)N)NC(=O)[C@H](CC(=O)O)NC(=O)[C@H](Cc2ccc(O)cc2)NC(=O)CN(C)C(=O)[C@H](Cc2ccc(-c3ccccc3)cc2)NC(=O)[C@H](Cc2ccc(-c3ccc(C(=O)O)cc3)cc2)NC(=O)[C@H](CN2CCOCC2)NC(=O)CSC[C@@H](C(=O)NCC(N)=O)NC1=O` [Example 121] ({CH2CO}-[Ala(morpholin-4-yl)][Bip(4'-COOH)][Bip][Sar]YDRVPVYLCG-NH2; thioether N-13) was run?
Its IC50 is 200 to 2000 nM.

How did the IC50 turn out when `CC(C)C[C@@H]1NC(=O)[C@H](CCCNC(=N)N)NC(=O)[C@H](C(C)C)NC(=O)[C@@H]2CCCN2C(=O)[C@H](Cc2ccc(O)cc2)NC(=O)[C@H](CCCNC(=N)N)NC(=O)[C@H](CC(=O)O)NC(=O)[C@@H]2CCCN2C(=O)CN(C)C(=O)[C@H](Cc2ccc(-c3ccccc3)cc2)NC(=O)[C@H](Cc2ccc(-c3ccc(C(=O)O)cc3)cc2)NC(=O)[C@H](CN2CCOCC2)NC(=O)CSC[C@@H](C(=O)NCC(N)=O)NC1=O` [Example 122] ({CH2CO}-[Ala(morpholin-4-yl)][Bip(4'-COOH)][Bip][Sar]PDRYPVRLCG-NH2; thioether N-13) was run?
The IC50 was 200 to 2000 nM.

For `CC(C)C[C@@H]1NC(=O)[C@H](CCCNC(=N)N)NC(=O)[C@H](C(C)C)NC(=O)[C@@H]2CCCN2C(=O)[C@H](C(C)C)NC(=O)[C@@H](CCCNC(=N)N)NC(=O)[C@H](CC(=O)O)NC(=O)[C@@H]2CCCN2C(=O)CN(C)C(=O)[C@H](Cc2ccc(-c3ccccc3)cc2)NC(=O)[C@H](Cc2ccc(-c3ccc(C(=O)O)cc3)cc2)NC(=O)[C@H](CN2CCOCC2)NC(=O)CSC[C@@H](C(=O)NCC(N)=O)NC1=O` [Example 123] ({CH2CO}-[Ala(morpholin-4-yl)][Bip(4'-COOH)][Bip][Sar]PD[dR]VPVRLCG-NH2; thioether N-13), which IC50 is on record?
Its IC50 is 50 to 200 nM.

Which IC50 does the source give for `CC(C)C[C@@H]1NC(=O)[C@H](Cc2ccc(O)cc2)NC(=O)[C@H](C(C)C)NC(=O)[C@@H]2CCCN2C(=O)[C@H](C(C)C)NC(=O)[C@H](CCCNC(=N)N)NC(=O)[C@H](CC(=O)O)NC(=O)[C@@H]2CCCN2C(=O)CN(C)C(=O)[C@H](Cc2ccc(-c3ccccc3)cc2)NC(=O)[C@H](Cc2ccc(-c3ccc(C(=O)O)cc3)cc2)NC(=O)[C@H](CN2CCOCC2)NC(=O)CSC[C@@H](C(=O)NCC(N)=O)NC1=O` [Example 124] ({CH2CO}-[Ala(morpholin-4-yl)][Bip(4'-COOH)][Bip][Sar]PDRVPVYLCG-NH2; thioether N-13) here?
Its IC50 is 50 to 200 nM.

With `CC(=O)Nc1ccc(-c2ccc(C[C@@H]3NC(=O)[C@H](Cc4ccc(-c5ccccc5)cc4)NC(=O)[C@H](CN4CCOCC4)NC(=O)CSC[C@@H](C(=O)NCC(N)=O)NC(=O)[C@H](CC(C)C)NC(=O)[C@H](Cc4ccc(O)cc4)NC(=O)[C@H](C(C)C)NC(=O)[C@@H]4CCCN4C(=O)[C@H](C(C)C)NC(=O)[C@@H](CCCNC(=N)N)NC(=O)[C@H](CC(=O)O)NC(=O)[C@@H]4CCCN4C(=O)CN(C)C3=O)cc2)cc1` [Example 125] ({CH2CO}-[Ala(morpholin-4-yl)][Bip][Bip(4'-NHAc)][Sar]PD[dR]VPVYLCG-NH2; thioether N-13) as the molecule, how does the IC50 read?
The IC50 was < 50 nM.

With `CC(=O)Nc1ccc(-c2ccc(C[C@@H]3NC(=O)[C@H](Cc4ccc(-c5ccccc5)cc4)NC(=O)[C@H](CN4CCOCC4)NC(=O)CSC[C@@H](C(=O)NCC(N)=O)NC(=O)[C@H](CC(C)C)NC(=O)[C@H](CCCNC(=N)N)NC(=O)[C@H](C(C)C)NC(=O)[C@@H]4CCCN4C(=O)[C@H](C(C)C)NC(=O)[C@H](CCCNC(=N)N)NC(=O)[C@H](CC(=O)O)NC(=O)[C@@H]4CCCN4C(=O)CN(C)C3=O)cc2)cc1` [Example 126] ({CH2CO}-[Ala(morpholin-4-yl)][Bip][Bip(4'-NHAc)][Sar]PDRVPVRLCG-NH2; thioether N-13) as the molecule, how does the IC50 read?
The IC50 was 50 to 200 nM.

For `CC(=O)Nc1ccc(-c2ccc(C[C@@H]3NC(=O)[C@H](Cc4ccc(-c5ccccc5)cc4)NC(=O)[C@H](CN4CCOCC4)NC(=O)CSC[C@@H](C(=O)NCC(N)=O)NC(=O)[C@H](CC(C)C)NC(=O)[C@H](CCCNC(=N)N)NC(=O)[C@H](C(C)C)NC(=O)[C@@H]4CCCN4C(=O)[C@H](Cc4ccc(O)cc4)NC(=O)[C@H](CCCNC(=N)N)NC(=O)[C@H](CC(=O)O)NC(=O)[C@@H]4CCCN4C(=O)CN(C)C3=O)cc2)cc1` [Example 127] ({CH2CO}-[Ala(morpholin-4-yl)][Bip][Bip(4'-NHAc)][Sar]PDRYPVRLCG-NH2; thioether N-13), which IC50 is on record?
Its IC50 is 50 to 200 nM.

For `CC(=O)Nc1ccc(-c2ccc(C[C@@H]3NC(=O)[C@H](Cc4ccc(-c5ccccc5)cc4)NC(=O)[C@H](CN4CCOCC4)NC(=O)CSC[C@@H](C(=O)NCC(N)=O)NC(=O)[C@H](CC(C)C)NC(=O)[C@H](CCCNC(=N)N)NC(=O)[C@H](C(C)C)NC(=O)[C@@H]4CCCN4C(=O)[C@H](C(C)C)NC(=O)[C@@H](CCCNC(=N)N)NC(=O)[C@H](CC(=O)O)NC(=O)[C@@H]4CCCN4C(=O)CN(C)C3=O)cc2)cc1` [Example 128] ({CH2CO}-[Ala(morpholin-4-yl)][Bip][Bip(4'-NHAc)][Sar]PD[dR]VPVRLCG-NH2; thioether N-13), which IC50 is on record?
The IC50 was < 50 nM.
